{"source": "paper PMC5513037", "about": "“Examining the influence of specificity ligands and ATP-competitive ligands on the overall effectiveness of bivalent kinase inhibitors” (Proteome Science, 2017)", "assay_in_all_cases": "KAM-matrix competition in K562 lysate;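 as to 0.001 uM KAM: median log10 fold change of treatment over DMSO control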;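 as to 0.01 uM KAM: median log10 fold change of treatment over DMSO control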;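 as to 0.1 uM KAM: median log10 fold change of treatment over DMSO control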;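 as to 1 uM KAM: median log10 fold change of treatment over DMSO control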;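 as to 10 uM KAM: median log10 fold change of treatment over DMSO control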", "format_in_all_cases": "binding", "key": {"[1]": {"molecular_target": "T1, RET (Homo sapiens, UniProt P07949)", "T1 construct": "endogenous in cells; host or cells: K562", "T1 sequence (P07949 29-1114)": "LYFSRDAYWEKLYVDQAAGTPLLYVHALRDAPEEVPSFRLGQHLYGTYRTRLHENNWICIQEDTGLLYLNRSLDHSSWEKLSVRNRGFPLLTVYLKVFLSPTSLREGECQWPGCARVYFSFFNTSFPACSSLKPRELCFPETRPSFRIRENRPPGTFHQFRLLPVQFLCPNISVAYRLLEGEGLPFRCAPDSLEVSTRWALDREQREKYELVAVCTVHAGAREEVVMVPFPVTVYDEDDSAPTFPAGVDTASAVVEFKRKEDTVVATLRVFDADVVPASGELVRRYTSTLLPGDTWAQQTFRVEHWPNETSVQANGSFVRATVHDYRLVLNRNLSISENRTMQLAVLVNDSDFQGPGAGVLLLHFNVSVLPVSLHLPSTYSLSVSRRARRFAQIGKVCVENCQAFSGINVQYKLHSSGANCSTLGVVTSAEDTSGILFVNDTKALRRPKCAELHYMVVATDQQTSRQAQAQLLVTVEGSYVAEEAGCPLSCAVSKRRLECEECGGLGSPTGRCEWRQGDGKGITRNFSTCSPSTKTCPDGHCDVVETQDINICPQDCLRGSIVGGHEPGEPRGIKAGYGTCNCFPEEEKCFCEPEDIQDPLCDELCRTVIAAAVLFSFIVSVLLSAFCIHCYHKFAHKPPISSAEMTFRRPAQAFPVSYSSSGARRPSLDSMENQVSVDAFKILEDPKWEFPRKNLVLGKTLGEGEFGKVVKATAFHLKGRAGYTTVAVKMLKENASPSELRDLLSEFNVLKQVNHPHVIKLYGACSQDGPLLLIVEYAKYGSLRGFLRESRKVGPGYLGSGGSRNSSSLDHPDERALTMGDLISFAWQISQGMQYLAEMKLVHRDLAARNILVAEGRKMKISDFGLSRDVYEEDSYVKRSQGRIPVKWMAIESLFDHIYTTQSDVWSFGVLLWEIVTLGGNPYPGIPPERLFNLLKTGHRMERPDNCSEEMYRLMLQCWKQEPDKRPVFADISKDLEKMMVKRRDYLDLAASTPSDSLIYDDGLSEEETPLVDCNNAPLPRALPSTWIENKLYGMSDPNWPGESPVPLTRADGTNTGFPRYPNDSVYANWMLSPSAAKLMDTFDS", "experimental": "(§1) Supplement 12953_2017_125_MOESM1_ESM.zip/MS_Supp Info.xlsx, sheet \"KAM\" | column: 10 uM KAM; 1 uM KAM; 0.1 uM KAM; 0.01 uM KAM; 0.001 uM KAM; RB50"}, "[2]": {"molecular_target": "T2, ACVR1B (Homo sapiens, UniProt P36896)", "T2 construct": "endogenous in cells; host or cells: K562", "T2 sequence (P36896 24-505)": "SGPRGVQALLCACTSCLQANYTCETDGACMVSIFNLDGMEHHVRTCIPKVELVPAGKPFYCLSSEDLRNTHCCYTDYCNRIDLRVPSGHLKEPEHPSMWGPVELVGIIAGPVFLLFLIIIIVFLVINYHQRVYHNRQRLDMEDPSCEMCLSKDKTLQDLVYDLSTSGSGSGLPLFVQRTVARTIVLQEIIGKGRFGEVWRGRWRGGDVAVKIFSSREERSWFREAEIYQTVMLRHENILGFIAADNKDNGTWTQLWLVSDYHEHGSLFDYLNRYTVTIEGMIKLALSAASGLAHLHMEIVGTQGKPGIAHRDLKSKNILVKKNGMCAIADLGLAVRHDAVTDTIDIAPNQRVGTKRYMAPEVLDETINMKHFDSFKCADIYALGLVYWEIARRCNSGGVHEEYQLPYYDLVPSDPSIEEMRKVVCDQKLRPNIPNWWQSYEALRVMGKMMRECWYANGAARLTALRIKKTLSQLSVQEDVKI", "experimental": "as §1"}, "[3]": {"molecular_target": "T3, MAP4K5 (Homo sapiens, UniProt Q9Y4K4)", "T3 construct": "endogenous in cells; host or cells: K562", "experimental": "as §1"}, "[4]": {"molecular_target": "T4, LRRK2 (Homo sapiens, UniProt Q5S007)", "T4 construct": "endogenous in cells; host or cells: K562", "experimental": "as §1"}, "[5]": {"molecular_target": "T5, PRPF4B (Homo sapiens, UniProt Q13523)", "T5 construct": "endogenous in cells; host or cells: K562", "T5 sequence (Q13523 whole entry)": "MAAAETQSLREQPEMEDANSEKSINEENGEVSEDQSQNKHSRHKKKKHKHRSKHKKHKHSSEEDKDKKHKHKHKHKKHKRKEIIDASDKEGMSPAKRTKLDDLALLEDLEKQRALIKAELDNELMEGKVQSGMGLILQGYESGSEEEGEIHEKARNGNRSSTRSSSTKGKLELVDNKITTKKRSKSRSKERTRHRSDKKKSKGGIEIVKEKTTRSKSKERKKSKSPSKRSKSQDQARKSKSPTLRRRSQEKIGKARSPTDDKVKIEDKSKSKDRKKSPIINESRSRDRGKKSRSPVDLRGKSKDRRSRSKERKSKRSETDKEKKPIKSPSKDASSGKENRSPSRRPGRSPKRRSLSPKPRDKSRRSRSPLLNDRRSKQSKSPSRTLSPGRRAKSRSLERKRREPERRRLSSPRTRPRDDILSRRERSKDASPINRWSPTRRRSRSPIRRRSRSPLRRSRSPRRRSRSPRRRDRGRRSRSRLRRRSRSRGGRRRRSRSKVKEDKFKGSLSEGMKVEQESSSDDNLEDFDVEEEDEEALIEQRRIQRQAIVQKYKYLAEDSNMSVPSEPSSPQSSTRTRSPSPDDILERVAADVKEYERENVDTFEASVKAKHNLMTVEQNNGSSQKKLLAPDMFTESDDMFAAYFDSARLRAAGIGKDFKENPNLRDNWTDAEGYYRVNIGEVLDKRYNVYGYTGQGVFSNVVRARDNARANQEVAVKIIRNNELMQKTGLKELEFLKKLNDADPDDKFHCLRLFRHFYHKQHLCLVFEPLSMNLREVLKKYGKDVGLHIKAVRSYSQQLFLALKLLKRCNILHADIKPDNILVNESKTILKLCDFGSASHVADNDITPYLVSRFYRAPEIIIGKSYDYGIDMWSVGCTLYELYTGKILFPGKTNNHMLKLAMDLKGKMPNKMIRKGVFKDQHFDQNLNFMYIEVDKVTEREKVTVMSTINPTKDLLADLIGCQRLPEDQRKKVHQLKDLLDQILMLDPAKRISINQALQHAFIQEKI", "experimental": "as §1"}, "[6]": {"molecular_target": "T6, BMP2K (Homo sapiens, UniProt Q9NSY1)", "T6 construct": "endogenous in cells; host or cells: K562", "experimental": "as §1"}, "[7]": {"molecular_target": "T7, CAMK2G (Homo sapiens, UniProt Q13555)", "T7 construct": "endogenous in cells; host or cells: K562", "T7 sequence (Q13555 whole entry)": "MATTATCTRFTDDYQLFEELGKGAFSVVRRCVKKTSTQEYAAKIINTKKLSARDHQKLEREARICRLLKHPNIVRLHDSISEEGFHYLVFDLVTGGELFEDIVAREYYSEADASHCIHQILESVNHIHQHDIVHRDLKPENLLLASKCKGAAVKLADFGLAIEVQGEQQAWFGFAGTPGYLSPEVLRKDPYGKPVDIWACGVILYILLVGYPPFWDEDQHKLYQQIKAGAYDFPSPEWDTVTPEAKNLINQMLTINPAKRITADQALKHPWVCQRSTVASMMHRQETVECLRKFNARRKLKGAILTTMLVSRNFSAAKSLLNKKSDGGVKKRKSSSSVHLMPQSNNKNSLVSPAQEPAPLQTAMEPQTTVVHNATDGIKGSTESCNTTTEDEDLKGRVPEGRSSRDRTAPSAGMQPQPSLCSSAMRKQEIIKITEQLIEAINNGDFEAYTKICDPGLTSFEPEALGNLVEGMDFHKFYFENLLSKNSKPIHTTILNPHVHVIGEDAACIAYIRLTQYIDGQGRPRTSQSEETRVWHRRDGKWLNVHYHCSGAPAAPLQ", "experimental": "as §1"}, "[8]": {"molecular_target": "T8, TNK2 (Homo sapiens, UniProt Q07912)", "T8 construct": "endogenous in cells; host or cells: K562", "T8 sequence (Q07912 whole entry)": "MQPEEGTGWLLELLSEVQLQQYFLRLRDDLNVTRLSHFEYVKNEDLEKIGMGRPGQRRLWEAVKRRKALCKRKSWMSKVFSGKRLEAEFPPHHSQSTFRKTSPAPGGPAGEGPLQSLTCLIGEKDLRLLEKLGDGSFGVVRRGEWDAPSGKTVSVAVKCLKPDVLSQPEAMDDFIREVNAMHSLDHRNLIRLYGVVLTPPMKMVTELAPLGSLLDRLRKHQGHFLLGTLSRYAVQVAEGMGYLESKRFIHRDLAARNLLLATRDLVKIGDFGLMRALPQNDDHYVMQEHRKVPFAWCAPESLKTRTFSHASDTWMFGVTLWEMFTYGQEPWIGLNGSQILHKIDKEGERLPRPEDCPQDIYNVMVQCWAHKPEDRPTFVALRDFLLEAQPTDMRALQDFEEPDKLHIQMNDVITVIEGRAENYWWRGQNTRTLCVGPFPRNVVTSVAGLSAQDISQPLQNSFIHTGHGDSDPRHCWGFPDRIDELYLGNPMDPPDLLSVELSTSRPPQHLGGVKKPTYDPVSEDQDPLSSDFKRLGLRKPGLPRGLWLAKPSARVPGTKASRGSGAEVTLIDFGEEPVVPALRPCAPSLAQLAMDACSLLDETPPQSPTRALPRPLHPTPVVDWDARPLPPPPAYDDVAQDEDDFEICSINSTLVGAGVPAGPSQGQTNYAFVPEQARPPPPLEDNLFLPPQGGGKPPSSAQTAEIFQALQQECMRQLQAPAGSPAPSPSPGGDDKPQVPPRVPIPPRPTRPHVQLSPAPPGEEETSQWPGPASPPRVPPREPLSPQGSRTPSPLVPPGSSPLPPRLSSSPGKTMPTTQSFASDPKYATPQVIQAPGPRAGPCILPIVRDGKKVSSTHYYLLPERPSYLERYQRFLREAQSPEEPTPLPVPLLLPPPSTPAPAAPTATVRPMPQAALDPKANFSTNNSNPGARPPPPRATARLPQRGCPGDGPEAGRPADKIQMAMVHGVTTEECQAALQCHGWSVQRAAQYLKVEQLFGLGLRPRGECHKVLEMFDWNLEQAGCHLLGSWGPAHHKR", "experimental": "as §1"}, "[9]": {"molecular_target": "T9, MAPK6 (Homo sapiens, UniProt Q16659)", "T9 construct": "endogenous in cells; host or cells: K562", "experimental": "as §1"}, "[10]": {"molecular_target": "T10, ABL2 (Homo sapiens, UniProt P42684)", "T10 construct": "endogenous in cells; host or cells: K562", "T10 sequence (P42684 whole entry)": "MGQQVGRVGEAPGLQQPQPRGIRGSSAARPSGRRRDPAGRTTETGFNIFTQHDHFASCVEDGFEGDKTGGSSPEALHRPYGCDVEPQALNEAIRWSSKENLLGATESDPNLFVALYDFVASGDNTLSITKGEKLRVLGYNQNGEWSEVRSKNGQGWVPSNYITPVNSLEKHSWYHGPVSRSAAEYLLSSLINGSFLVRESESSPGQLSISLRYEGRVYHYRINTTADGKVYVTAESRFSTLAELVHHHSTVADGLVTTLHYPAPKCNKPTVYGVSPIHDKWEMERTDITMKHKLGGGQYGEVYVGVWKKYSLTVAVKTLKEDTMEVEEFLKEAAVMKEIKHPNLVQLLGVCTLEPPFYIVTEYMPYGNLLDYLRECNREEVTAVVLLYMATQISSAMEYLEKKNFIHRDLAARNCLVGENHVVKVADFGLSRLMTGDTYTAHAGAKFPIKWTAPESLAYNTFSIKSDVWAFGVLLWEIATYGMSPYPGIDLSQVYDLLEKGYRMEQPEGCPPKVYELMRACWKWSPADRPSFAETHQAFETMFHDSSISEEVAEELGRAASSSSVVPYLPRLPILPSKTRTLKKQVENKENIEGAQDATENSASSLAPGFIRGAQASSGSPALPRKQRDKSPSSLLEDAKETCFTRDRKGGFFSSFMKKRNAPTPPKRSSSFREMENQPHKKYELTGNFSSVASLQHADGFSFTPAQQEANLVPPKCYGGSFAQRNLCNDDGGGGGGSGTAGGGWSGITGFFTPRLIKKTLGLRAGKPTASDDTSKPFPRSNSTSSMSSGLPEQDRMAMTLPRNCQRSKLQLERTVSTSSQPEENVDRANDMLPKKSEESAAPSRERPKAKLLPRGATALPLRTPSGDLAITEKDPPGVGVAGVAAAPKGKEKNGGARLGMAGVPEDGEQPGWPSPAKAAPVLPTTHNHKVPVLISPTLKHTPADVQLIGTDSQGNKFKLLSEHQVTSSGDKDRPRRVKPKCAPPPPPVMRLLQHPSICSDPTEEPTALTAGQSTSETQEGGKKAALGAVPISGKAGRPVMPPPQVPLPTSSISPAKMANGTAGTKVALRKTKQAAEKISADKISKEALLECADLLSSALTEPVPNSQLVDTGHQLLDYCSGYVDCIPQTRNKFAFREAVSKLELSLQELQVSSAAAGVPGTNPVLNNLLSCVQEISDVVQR", "experimental": "as §1"}, "[11]": {"molecular_target": "T11, CAMK2D (Homo sapiens, UniProt Q13557)", "T11 construct": "endogenous in cells; host or cells: K562", "experimental": "as §1"}, "[12]": {"molecular_target": "T12, MAP3K3 (Homo sapiens, UniProt Q99759)", "T12 construct": "endogenous in cells; host or cells: K562 cell lysate", "T12 sequence (Q99759 1-626)": "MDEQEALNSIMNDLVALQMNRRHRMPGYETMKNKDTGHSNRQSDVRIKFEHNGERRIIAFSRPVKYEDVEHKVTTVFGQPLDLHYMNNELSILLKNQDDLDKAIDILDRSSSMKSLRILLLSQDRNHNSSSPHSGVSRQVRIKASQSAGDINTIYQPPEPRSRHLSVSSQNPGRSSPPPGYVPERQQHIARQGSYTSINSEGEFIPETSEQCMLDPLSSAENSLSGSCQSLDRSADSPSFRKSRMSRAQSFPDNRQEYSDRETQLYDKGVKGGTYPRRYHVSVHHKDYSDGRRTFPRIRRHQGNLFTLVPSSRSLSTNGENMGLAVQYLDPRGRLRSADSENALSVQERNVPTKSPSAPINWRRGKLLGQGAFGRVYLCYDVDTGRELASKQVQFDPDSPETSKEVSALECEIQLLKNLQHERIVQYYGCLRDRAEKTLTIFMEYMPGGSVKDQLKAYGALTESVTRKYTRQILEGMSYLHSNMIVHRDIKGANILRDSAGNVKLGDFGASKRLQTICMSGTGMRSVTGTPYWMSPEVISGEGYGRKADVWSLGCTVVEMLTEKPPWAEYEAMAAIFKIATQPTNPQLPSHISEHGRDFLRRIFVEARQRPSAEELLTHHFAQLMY", "experimental": "as §1"}, "[13]": {"settings": "read-out: RB50 (the source's name)"}, "[14]": {"settings": "KAM 0.001-10 uM, read-out: RB50 (the source's name)"}}, "data": [{"smiles": "N#CCc1ccc(Nc2nc(NCCCN)cc(Nc3cc(C4CC4)[nH]n3)n2)cc1", "note": "[KAM]", "values": [{"measurement": "median Log10 fold change", "setting": "[1]; 0.001 uM KAM", "value": -0.129}, {"measurement": "median Log10 fold change", "setting": "[1]; 0.01 uM KAM", "value": -0.007083}, {"measurement": "median Log10 fold change", "setting": "[1]; 0.1 uM KAM", "value": -0.09548}, {"measurement": "median Log10 fold change", "setting": "[1]; 1 uM KAM", "value": -0.3474}, {"measurement": "median Log10 fold change", "setting": "[1]; 10 uM KAM", "value": -0.5381}, {"measurement": "IC50", "setting": "[1]; [13]", "value": 908, "unit": "nM"}, {"measurement": "median Log10 fold change", "setting": "[2]; 0.001 uM KAM", "value": -0.01715}, {"measurement": "median Log10 fold change", "setting": "[2]; 0.01 uM KAM", "value": -0.04575}, {"measurement": "median Log10 fold change", "setting": "[2]; 0.1 uM KAM", "value": -0.2439}, {"measurement": "median Log10 fold change", "setting": "[2]; 1 uM KAM", "value": -0.5931}, {"measurement": "median Log10 fold change", "setting": "[2]; 10 uM KAM", "value": -0.7717}, {"measurement": "IC50", "setting": "[2]; [13]", "value": 169, "unit": "nM"}, {"measurement": "median Log10 fold change", "setting": "[3]; 0.001 uM KAM", "value": 0.009454}, {"measurement": "median Log10 fold change", "setting": "[3]; 0.01 uM KAM", "value": -0.01011}, {"measurement": "median Log10 fold change", "setting": "[3]; 0.1 uM KAM", "value": -0.2304}, {"measurement": "median Log10 fold change", "setting": "[3]; 1 uM KAM", "value": -0.4191}, {"measurement": "median Log10 fold change", "setting": "[3]; 10 uM KAM", "value": -0.5735}, {"measurement": "IC50", "setting": "[3]; [13]", "value": 332, "unit": "nM"}, {"measurement": "IC50", "setting": "[4]; [14]", "value": "> 10000", "unit": "nM"}, {"measurement": "0.001 uM KAM", "setting": "[4]; relative to 0 uM KAM = 0", "value": -0.05098}, {"measurement": "0.01 uM KAM", "setting": "[4]; relative to 0 uM KAM = 0", "value": -0.01752}, {"measurement": "0.1 uM KAM", "setting": "[4]; relative to 0 uM KAM = 0", "value": 0.02155}, {"measurement": "1 uM KAM", "setting": "[4]; relative to 0 uM KAM = 0", "value": 0.06199}, {"measurement": "10 uM KAM", "setting": "[4]; relative to 0 uM KAM = 0", "value": -0.09009}, {"measurement": "median Log10 fold change", "setting": "[5]; 0.001 uM KAM", "value": -0.03755}, {"measurement": "median Log10 fold change", "setting": "[5]; 0.01 uM KAM", "value": -0.07792}, {"measurement": "median Log10 fold change", "setting": "[5]; 0.1 uM KAM", "value": -0.1894}, {"measurement": "median Log10 fold change", "setting": "[5]; 1 uM KAM", "value": -0.2633}, {"measurement": "median Log10 fold change", "setting": "[5]; 10 uM KAM", "value": -0.4136}, {"measurement": "IC50", "setting": "[5]; [13]", "value": 1400, "unit": "nM"}, {"measurement": "median Log10 fold change", "setting": "[6]; 0.001 uM KAM", "value": -0.005905}, {"measurement": "median Log10 fold change", "setting": "[6]; 0.01 uM KAM", "value": -0.3094}, {"measurement": "median Log10 fold change", "setting": "[6]; 0.1 uM KAM", "value": -0.4691}, {"measurement": "median Log10 fold change", "setting": "[6]; 1 uM KAM", "value": -0.5686}, {"measurement": "median Log10 fold change", "setting": "[6]; 10 uM KAM", "value": -0.6945}, {"measurement": "IC50", "setting": "[6]; [13]", "value": 16, "unit": "nM"}, {"measurement": "IC50", "setting": "[7]; [14]", "value": "> 10000", "unit": "nM"}, {"measurement": "0.001 uM KAM", "setting": "[7]; relative to 0 uM KAM = 0", "value": -0.0014}, {"measurement": "0.01 uM KAM", "setting": "[7]; relative to 0 uM KAM = 0", "value": 0.01571}, {"measurement": "0.1 uM KAM", "setting": "[7]; relative to 0 uM KAM = 0", "value": -0.03365}, {"measurement": "1 uM KAM", "setting": "[7]; relative to 0 uM KAM = 0", "value": -0.07588}, {"measurement": "10 uM KAM", "setting": "[7]; relative to 0 uM KAM = 0", "value": -0.2109}, {"measurement": "IC50", "setting": "[8]; [14]", "value": "> 10000", "unit": "nM"}, {"measurement": "0.001 uM KAM", "setting": "[8]; relative to 0 uM KAM = 0", "value": 0.001973}, {"measurement": "0.01 uM KAM", "setting": "[8]; relative to 0 uM KAM = 0", "value": -0.007052}, {"measurement": "0.1 uM KAM", "setting": "[8]; relative to 0 uM KAM = 0", "value": -0.06006}, {"measurement": "1 uM KAM", "setting": "[8]; relative to 0 uM KAM = 0", "value": -0.2026}, {"measurement": "10 uM KAM", "setting": "[8]; relative to 0 uM KAM = 0", "value": -0.2086}, {"measurement": "median Log10 fold change", "setting": "[9]; 0.001 uM KAM", "value": 0.01888}, {"measurement": "median Log10 fold change", "setting": "[9]; 0.01 uM KAM", "value": 0.003428}, {"measurement": "median Log10 fold change", "setting": "[9]; 0.1 uM KAM", "value": -0.1658}, {"measurement": "median Log10 fold change", "setting": "[9]; 1 uM KAM", "value": -0.3554}, {"measurement": "median Log10 fold change", "setting": "[9]; 10 uM KAM", "value": -0.4572}, {"measurement": "IC50", "setting": "[9]; [13]", "value": 763, "unit": "nM"}, {"measurement": "median Log10 fold change", "setting": "[10]; 0.001 uM KAM", "value": -0.03166}, {"measurement": "median Log10 fold change", "setting": "[10]; 0.01 uM KAM", "value": -0.02797}, {"measurement": "median Log10 fold change", "setting": "[10]; 0.1 uM KAM", "value": -0.1724}, {"measurement": "median Log10 fold change", "setting": "[10]; 1 uM KAM", "value": -0.2861}, {"measurement": "median Log10 fold change", "setting": "[10]; 10 uM KAM", "value": -0.4205}, {"measurement": "IC50", "setting": "[10]; [13]", "value": 1220, "unit": "nM"}, {"measurement": "IC50", "setting": "[11]; [14]", "value": "> 10000", "unit": "nM"}, {"measurement": "0.001 uM KAM", "setting": "[11]; relative to 0 uM KAM = 0", "value": -0.03504}, {"measurement": "0.01 uM KAM", "setting": "[11]; relative to 0 uM KAM = 0", "value": 0.05262}, {"measurement": "0.1 uM KAM", "setting": "[11]; relative to 0 uM KAM = 0", "value": 0.01424}, {"measurement": "1 uM KAM", "setting": "[11]; relative to 0 uM KAM = 0", "value": -0.07545}, {"measurement": "10 uM KAM", "setting": "[11]; relative to 0 uM KAM = 0", "value": -0.201}, {"measurement": "median Log10 fold change", "setting": "[12]; 0.001 uM KAM", "value": -0.04647}, {"measurement": "median Log10 fold change", "setting": "[12]; 0.01 uM KAM", "value": 0.002946}, {"measurement": "median Log10 fold change", "setting": "[12]; 0.1 uM KAM", "value": -0.1524}, {"measurement": "median Log10 fold change", "setting": "[12]; 1 uM KAM", "value": -0.3206}, {"measurement": "median Log10 fold change", "setting": "[12]; 10 uM KAM", "value": -0.4381}, {"measurement": "IC50", "setting": "[12]; [13]", "value": 1000, "unit": "nM"}]}]}
